According to patent US6028195A, “Piperazine derivatives and process for the preparation thereof” (Samjin Pharmaceutical Co., Ltd., priority 1996, dated 2000):
≈ marks a conversion by molar mass, not a printed value. Where two headings read alike, the source gives them in different places.

How the values were obtained:
Type in all cases: cell-based
[1] = test system: XF 498 (human CNS); experiment: SRB assay, in vitro antitumor effect against XF 498; details: for IC50: Homo sapiens
Description: (§1) In vitro antitumor effect against human tumor cell lines.
(§2) b. 5×10^3 ~2×10^4 cells were added into each well of 96-well plate and cultured in 5% CO2 incubator, at 37° C., for 24 hours.
(§3) c. Each sample drug was dissolved in a little DMSO and diluted with the used medium to a prescribed concentration for experiments, wherein the final concentration of DMSO was controlled below 0.5%.
(§4) d. Medium of each well cultured for 24 hours as above b. was removed by aspiration. Each 200 μl of drug samples prepared in c. was added into each well and the wells were cultured for 48 hours. Tz(time zero) plates were collected at the point of time drugs were added.
(§5) e. According to the SRB assay method, cell fixing with TCA, staining with 0.4% SRB solution, washing with 1% acetic acid and elution of dye with 10 mM Tris solution were carried out on Tz plates and culture-ended plates, and then, OD values were measured at 520 nm.
(§6) a. Time zero(Tz) value was determined with measuring the SRB protein value at the point of time drugs were added.
(§7) b. Control value(C) was determined with the OD value of an well untreated with drug.
(§8) c. Drug-treated test value(T) was determined with the OD value of drug-treated well.
(§9) d. Effects of drugs were estimated with growth stimulation, net growth inhibition, net killing etc. calculated from Tz, C and T.
(§10) e. If T≥Tz, cellular response function was calculated by 100×(T-Tz)/(C-Tz), and if T<Tz, by 100×(T-Tz)/Tz.

[2] = test system: SKOV-3 (human ovarian); experiment: SRB assay, in vitro antitumor effect against SKOV-3; details: SK-OV-3, 48 hours; for IC50: Homo sapiens, read-out: ED50 (the source's name)
Description: as §1, §2, §3, §4, §5, §6, §7, §8, §9, §10

[3] = test system: HCT-15 (human colon); experiment: SRB assay, in vitro antitumor effect against HCT-15; details: for IC50: Homo sapiens
Description: as §1, §2, §3, §4, §5, §6, §7, §8, §9, §10

[4] = test system: SKMEL-2 (human melanoma); experiment: SRB assay, in vitro antitumor effect against SKMEL-2; details: for IC50: Homo sapiens
Description: as §1, §2, §3, §4, §5, §6, §7, §8, §9, §10

[5] = test system: A549 (human non-small lung cell); experiment: SRB assay, in vitro antitumor effect against A549; details: A549, 48 hours; for IC50: Homo sapiens, read-out: ED50 (the source's name)
Description: as §1, §2, §3, §4, §5, §6, §7, §8, §9, §10

[6] = XF498, XF-498, 48 hours, read-out: ED50 (the source's name)
[7] = HCT 15, 48 hours, read-out: ED50 (the source's name)
[8] = SK-MEL-2, 48 hours, read-out: ED50 (the source's name)

Compound | IC50 [1, 6] [µg/mL] | IC50 [2] [µg/mL] | IC50 [3, 7] [µg/mL] | IC50 [4, 8] [µg/mL] | IC50 [5] [µg/mL] | ED50 ([1]; XF-498, 48 hours) [µg/mL] | ED50 [2] [µg/mL] | ED50 ([3]; HCT 15, 48 hours) [µg/mL] | ED50 ([4]; SK-MEL-2, 48 hours) [µg/mL] | ED50 [5] [µg/mL] | IC50 ([4]; SK-MEL-2, 48 h, read-out: ED50) [µg/mL] | IC50 ([3]; HCT-15, 48 h, read-out: ED50) [µg/mL] | IC50 ([1]; XF498, 48 h, read-out: ED50) [µg/mL]
COc1nc2ccccc2cc1NC(=S)N1CCN(c2cc(Cl)cc(Cl)c2)CC1 [Example 112, 1-[(2-Methoxyquinolin-3-yl)aminothiocarbonyl]-4-(3,5-dichlorophenyl)piperazine] | 2.07 (≈ 4.63 µM) | 6.43 (≈ 14.4 µM) | 0.61 (≈ 1.36 µM) | 0.22 (≈ 0.492 µM) | 0.56 (≈ 1.25 µM) |  |  |  |  |  |  |  | 
CCCc1nc(OC)c(N(C)C(=O)N2CCN(c3cc(OC)cc(OC)c3)CC2)cc1C [Example 148, 1-[N-(2-Methoxy-5-methyl-6-propylpyridin-3-yl)-N-methylaminocarbonyl]-4-(3,5-dimethoxyphenyl)piperazine] | 0.05 (≈ 0.113 µM) | 0.07 (≈ 0.158 µM) | 0.05 (≈ 0.113 µM) | 0.03 (≈ 0.0678 µM) | 0.01 (≈ 0.0226 µM) |  |  |  |  |  |  |  | 
COc1cc(OC)cc(N2CCN(C(=O)N(c3cc4ccccc4nc3OC)C(C)C)CC2)c1 [Example 100] | 0.66 (≈ 1.42 µM) | 3.02 (≈ 6.5 µM) | 4.21 (≈ 9.06 µM) | 3.47 (≈ 7.47 µM) | 4.54 (≈ 9.77 µM) |  |  |  |  |  |  |  | 
C=Cc1cc(N(C)C(=O)N2CCN(c3cc(C)cc(C)c3)CC2)c(OC)nc1C [Example 159, 1-[N-(2-Methoxy-6-methyl-5-vinylpyridin-3-yl)-N-methylaminocarbonyl]-4-(3,5-dimethylphenyl)piperazine] | 0.21 (≈ 0.532 µM) | 0.1 (≈ 0.253 µM) | 0.17 (≈ 0.431 µM) | 0.07 (≈ 0.177 µM) | 0.05 (≈ 0.127 µM) |  |  |  |  |  |  |  | 
1-{[2-(Pyridin-2-yl)quinolin-4-yl]aminocarbonyl}-4-(3,5-dimethoxyphenyl)piperazine [Example 128] |  |  |  |  |  | 0.44 | 0.37 | 0.51 | 0.42 | 0.40 |  |  | 
CCc1nc(OC)c(N(C)C(=O)N2CCN(c3cc(OC)cc(OC)c3)CC2)cc1C [Example 147, 1-[N-(6-Ethyl-2-methoxy-5-methylpyridin-3-yl)-N-methylaminocarbonyl]-4-(3,5-dimethoxyphenyl)piperazine] | 0.466 (≈ 1.09 µM) | 0.092 (≈ 0.215 µM) | 0.18 (≈ 0.42 µM) |  | 0.031 (≈ 0.0723 µM) |  |  |  |  |  | 0.024 (≈ 0.056 µM) |  | 
CCCc1cc(NC(=O)N2CCN(c3ccccc3OC)CC2)c(OC)nc1C [Example 11, 1-[(2-Methoxy-6-methyl-5-propylpyridin-3-yl)aminocarbonyl]-4-(2-methoxyphenyl)piperazine] | 0.73 (≈ 1.83 µM) | 0.56 (≈ 1.41 µM) | 0.71 (≈ 1.78 µM) | 0.62 (≈ 1.56 µM) | 0.91 (≈ 2.28 µM) |  |  |  |  |  |  |  | 
CCN(C(=O)N1CCN(c2cc(OC)cc(OC)c2)CC1)c1cc(C)c(C)nc1OC [Example 133, 1-[N-Ethyl-N-(5,6-dimethyl-2-methoxypyridin-3-yl)aminocarbonyl]-4-(3,5-dimethoxyphenyl)piperazine] | 0.61 (≈ 1.42 µM) | 0.94 (≈ 2.19 µM) | 0.57 (≈ 1.33 µM) | 0.53 (≈ 1.24 µM) | 0.57 (≈ 1.33 µM) |  |  |  |  |  |  |  | 
COc1ccc(C)c(N2CCN(C(=O)N(Cc3ccccc3)c3cc(C)c(C)nc3OC)CC2)c1 [Example 142, 1-[N-Benzyl-N-(5,6-dimethyl-2-methoxypyridin-3-yl)aminocarbonyl]-4-(5-methoxy-2-methylphenyl)piperazine] | 0.026 (≈ 0.0548 µM) | 0.011 (≈ 0.0232 µM) | 0.017 (≈ 0.0358 µM) | 0.021 (≈ 0.0442 µM) | 0.015 (≈ 0.0316 µM) |  |  |  |  |  |  |  | 
COc1nc2ccccc2cc1NC(=S)N1CCN(c2cc(C)cc(C)c2)CC1 [Example 110, 1[(2-Methoxyquinolin-3-yl)aminothiocarbonyl]-4-(3,5-dimethylphenyl)piperazine] | 0.81 (≈ 1.99 µM) | 1.06 (≈ 2.61 µM) | 0.69 (≈ 1.7 µM) | 0.97 (≈ 2.39 µM) | 0.52 (≈ 1.28 µM) |  |  |  |  |  |  |  | 
COc1cc(C)c(C)cc1NC(=S)N1CCN(c2cc(C)cc(C)c2)CC1 [Example 198, 1-[(4,5-Dimethyl-2-methoxyphenyl)aminothiocarbonyl]-4-(3,5-dimethylphenyl)piperazine] | 0.072 (≈ 0.188 µM) | 0.068 (≈ 0.177 µM) | 0.56 (≈ 1.46 µM) | 0.008 (≈ 0.0209 µM) | 0.021 (≈ 0.0548 µM) |  |  |  |  |  |  |  | 
COc1cc(C)c(C)cc1NC(=S)N1CCN(c2cc(Cl)cc(Cl)c2)CC1 [Example 201, 1-[(4,5-Dimethyl-2-methoxyphenyl)aminothiocarbonyl]-4-(3,5-dichlorophenyl)piperazine] | 0.026 (≈ 0.0613 µM) | 0.053 (≈ 0.125 µM) |  | 0.049 (≈ 0.115 µM) | 0.014 (≈ 0.033 µM) |  |  |  |  |  |  | 0.071 (≈ 0.167 µM) | 
COc1cc(OC)cc(N2CCN(C(=O)N(C)c3cc(C(C)O)c(C)nc3OC)CC2)c1 (stereo not shown) [Example 152, 1-{N-[5-(1-Hydroxyethyl)-2-methoxy-6-methylpyridin-3-yl]-N-methylaminocarbonyl}-4-(3,5-dimethoxyphenyl)piperazine] | 0.26 (≈ 0.585 µM) | 0.37 (≈ 0.832 µM) | 0.44 (≈ 0.99 µM) | 0.2 (≈ 0.45 µM) | 0.18 (≈ 0.405 µM) |  |  |  |  |  |  |  | 
COc1nc(C)c(C(C)O)cc1NC(=S)N1CCN(c2cc(C)cc(C)c2)CC1 (stereo not shown) [Example 64, 1-{[5-(1-Hydroxyethyl)-2-methoxy-6-methylpyridin-3-yl]aminothiocarbonyl}-4-(3,5-dimethylphenyl)piperazine] | 0.23 (≈ 0.555 µM) | 0.56 (≈ 1.35 µM) | 0.37 (≈ 0.892 µM) | 0.52 (≈ 1.25 µM) | 0.42 (≈ 1.01 µM) |  |  |  |  |  |  |  | 
CCN(C(=O)N1CCN(c2cc(OC)cc(OC)c2)CC1)c1cc2ccccc2nc1OC [Example 99, 1-[N-Ethyl-N-(2-methoxyquinolin-3-yl)aminocarbonyl]-4-(3,5-dimethoxyphenyl)piperazine] | 0.52 (≈ 1.15 µM) | 0.41 (≈ 0.91 µM) | 0.36 (≈ 0.799 µM) | 0.4 (≈ 0.888 µM) | 0.43 (≈ 0.954 µM) |  |  |  |  |  |  |  | 
CCCc1nc(OC)c(NC(=O)N2CCN(c3cccc(O)c3)CC2)cc1C [Example 17, 1-[(2-Methoxy-5-methyl-6-propylpyridin-3-yl)aminocarbonyl]-4-(3-hydroxyphenyl)piperazine] |  | 0.01 (≈ 0.026 µM) | 0.008 (≈ 0.0208 µM) | 0.021 (≈ 0.0546 µM) | 0.018 (≈ 0.0468 µM) |  |  |  |  |  |  |  | 0.077 (≈ 0.2 µM)
COc1cc(OC)cc(N2CCN(C(=S)Nc3cc(C(C)=O)c(C)nc3OC)CC2)c1 [Example 53, 1-[(5-Acetyl-2-methoxy-6-methylpyridin-3-yl)aminothiocarbonyl]-4-(3,5-dimethoxyphenyl)piperazine] | 0.67 (≈ 1.51 µM) | 0.47 (≈ 1.06 µM) | 0.71 (≈ 1.6 µM) | 0.64 (≈ 1.44 µM) | 0.47 (≈ 1.06 µM) |  |  |  |  |  |  |  | 
COc1cc(C)c(C)cc1NC(=O)N1CCN(c2cccc(Cl)c2)CC1 [Example 177, 1-[(4,5-Dimethyl-2-methoxyphenyl)aminocarbonyl]-4-(3-chlorophenyl)piperazine] | 0.12 (≈ 0.321 µM) | 0.39 (≈ 1.04 µM) | 0.09 (≈ 0.241 µM) | 0.17 (≈ 0.455 µM) | 0.52 (≈ 1.39 µM) |  |  |  |  |  |  |  | 
COc1cc(OC)cc(N2CCN(C(=O)N(C)c3cc(C)c(C)nc3OC)CC2)c1 [Example 132, 1-[N-(5,6-Dimethyl-2-methoxypyridin-3-yl)-N-methylaminocarbonyl]-4-(3,5-dimethoxyphenyl)piperazine] | 0.04 (≈ 0.0965 µM) | 0.01 (≈ 0.0241 µM) | 0.04 (≈ 0.0965 µM) | 0.03 (≈ 0.0724 µM) | 0.03 (≈ 0.0724 µM) |  |  |  |  |  |  |  | 
COc1cc(OC)cc(N2CCN(C(=O)N(C)c3cc(C)c(C)cc3OC)CC2)c1 [Example 190, 1-[N-(4,5-Dimethyl-2-methoxyphenyl)-N-methylaminocarbonyl]-4-(3,5-dimethoxyphenyl)piperazine] | 0.443 (≈ 1.07 µM) | 0.008 (≈ 0.0193 µM) | 0.017 (≈ 0.0411 µM) | 0.002 (≈ 0.00484 µM) | 0.004 (≈ 0.00967 µM) |  |  |  |  |  |  |  | 
